Measured values reported in patent publication US9365584B2, “Thieno [2,3-B] pyridinedione activators of AMPK and therapeutic uses thereof” (Poxel, priority 2009, dated 2016).

System: AMPK
Test: AMPK enzyme activity assay (Delfia technology, AMARA peptide substrate)
Assay type: biochemical
Details: compound at 30 μM vs AMP at 200 μM
How it was run: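 Value is the ratio of compound (30 μM) to AMP (200 μM) response, each as % of basal control. Phosphorylation of the AMARA peptide after AMPK addition was read by Delfia with an anti-phosphoserine antibody.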

Structure (SMILES) | Activity: Ratio between the % of control (basal activity) of compound of formula (1) at 30 μM and the % of control (basal activity) of AMP (natural substrate) at 200 μM | Activity: Ratio between the % of control (basal activity) of compound of formula (1) at 30 μM and the % of control (basal activity) of AMP (natural substrate) at 200 μM (listed as 4) | Activity: Ratio between the % of control (basal activity) of compound of formula (1) at 30 μM and the % of control (basal activity) of AMP (natural substrate) at 200 μM (listed as 5)
CC1(c2cccc(F)c2)C(=O)Nc2sc(Cl)c(-c3ccccc3F)c2C1=O (stereo not shown) [No 90, 2-chloro-3-(2-fluorophenyl)-5-(3-fluorophenyl)-5-methyl-7H-thieno[2,3-b]pyridine-4,6-dione] | A (0%<A<50%) |  | 
CC1(c2ccc(F)cc2)C(=O)Nc2sc(Cl)c(-c3ccccc3F)c2C1=O (stereo not shown) [No 91, 2-chloro-3-(2-fluorophenyl)-5-(4-fluorophenyl)-5-methyl-7H-thieno[2,3-b]pyridine-4,6-dione] | A (0%<A<50%) |  | 
Cc1cccc(C2(C)C(=O)Nc3sc(Cl)c(-c4ccccc4F)c3C2=O)c1 (stereo not shown) [No 92, 2-chloro-3-(2-fluorophenyl)-5-methyl-5-(m-tolyl)-7H-thieno[2,3-b]pyridine-4,6-dione] | A (0%<A<50%) |  | 
O=C1Nc2sc(Cl)c(-c3ccncc3)c2C(=O)C1(F)c1ccccc1 (stereo not shown) [No 93, 2-chloro-5-fluoro-5-phenyl-3-(4-pyridyl)-7H-thieno[2,3-b]pyridine-4,6-dione] | A (0%<A<50%) |  | 
COc1cccc(-c2c(Cl)sc3c2C(=O)C(F)(c2ccccc2)C(=O)N3)c1 (stereo not shown) [No 94, 2-chloro-5-fluoro-3-(3-methoxyphenyl)-5-phenyl-7H-thieno[2,3-b]pyridine-4,6-dione] | C (C≧75%) |  | 
O=C1Nc2sc(Cl)c(-c3ccccc3)c2C(=O)C1(F)c1cccc(C(F)(F)F)c1 (stereo not shown) [No 95, 2-chloro-5-fluoro-3-phenyl-5-[3-(trifluoro-methyl)phenyl]-7H-thieno[2,3-b]pyridine-4,6-dione] | B (50%≦B<75%) |  | 
COc1ccc(-c2c(Cl)sc3c2C(=O)C(C)(c2ccc(C)cc2)C(=O)N3)cc1 (stereo not shown) [No 96, 2-chloro-3-(4-methoxyphenyl)-5-methyl-5-(p-tolyl)-7H-thieno[2,3-b]pyridine-4,6-dione] | A (0%<A<50%) |  | 
CS(=O)(=O)c1ccc(C2(F)C(=O)Nc3sc(Cl)c(-c4ccccc4)c3C2=O)cc1 (stereo not shown) [No 97, 2-chloro-5-fluoro-5-(4-methylsulfonylphenyl)-3-phenyl-7H-thieno[2,3-b]pyridine-4,6-dione] | C (C≧75%) |  | 
COc1ccccc1-c1c(Cl)sc2c1C(=O)C(F)(c1ccccc1)C(=O)N2 (stereo not shown) [No 98, 2-chloro-5-fluoro-3-(2-methoxyphenyl)-5-phenyl-7H-thieno[2,3-b]pyridine-4,6-dione] | A (0%<A<50%) |  | 
COc1ccccc1C1(F)C(=O)Nc2sc(Cl)c(-c3ccc(F)cc3O)c2C1=O (stereo not shown) [No 99, 2-chloro-5-fluoro-3-(4-fluoro-2-hydroxy-phenyl)-5-(2-methoxyphenyl)-7H-thieno[2,3-b]pyridine-4,6-dione] | C (C≧75%) |  | 
O=C1Nc2scc(-c3ccccc3)c2C(=O)C1(F)c1ccccc1 (stereo not shown) [No 100, 5-fluoro-3,5-diphenyl-7H-thieno[2,3-b]pyridine-4,6-dione] | B (50%≦B<75%) |  | 
O=C1Nc2sc(Cl)c(-c3ccccc3Cl)c2C(=O)C1(F)c1ccccc1 (stereo not shown) [No 101, 2-chloro-3-(2-chlorophenyl)-5-fluoro-5-phenyl-7H-thieno[2,3-b]pyridine-4,6-dione] | B (50%≦B<75%) |  | 
Cc1c(F)ccc(-c2csc3c2C(=O)C(F)(c2ccccc2)C(=O)N3)c1O (stereo not shown) [No 102, 5-fluoro-3-(4-fluoro-2-hydroxy-3-methyl-phenyl)-5-phenyl-7H-thieno[2,3-b]pyridine-4,6-dione] | C (C≧75%) |  | 
CC1(c2cccc(F)c2)C(=O)Nc2sc(Cl)c(-c3cccc(F)c3)c2C1=O (stereo not shown) [No 103, 2-chloro-3,5-bis(3-fluorophenyl)-5-methyl-7H-thieno[2,3-b]pyridine-4,6-dione] | A (0%<A<50%) |  | 
CC1(c2ccccc2F)C(=O)Nc2sc(Cl)c(-c3cccc(F)c3)c2C1=O (stereo not shown) [No 104, 2-chloro-5-(2-fluorophenyl)-3-(3-fluorophenyl)-5-methyl-7H-thieno[2,3-b]pyridine-4,6-dione] | B (50%≦B<75%) |  | 
COc1cccc(C2(C)C(=O)Nc3sc(Cl)c(-c4cccc(F)c4)c3C2=O)c1 (stereo not shown) [No 105, 2-chloro-3-(3-fluorophenyl)-5-(3-methoxyphenyl)-5-methyl-7H-thieno[2,3-b]pyridine-4,6-dione] | A (0%<A<50%) |  | 
Cc1cccc(C2(C)C(=O)Nc3sc(Cl)c(-c4cccc(F)c4)c3C2=O)c1 (stereo not shown) [No 106, 2-chloro-3-(3-fluorophenyl)-5-methyl-5-(m-tolyl)-7H-thieno[2,3-b]pyridine-4,6-dione] | A (0%<A<50%) |  | 

Other lines, results leading:

Activity: Ratio between the % of control (basal activity) of compound of formula (1) at 30 μM and the % of control (basal activity) of AMP (natural substrate) at 200 μM | Activity: Ratio between the % of control (basal activity) of compound of formula (1) at 30 μM and the % of control (basal activity) of AMP (natural substrate) at 200 μM (listed as 4) | Activity: Ratio between the % of control (basal activity) of compound of formula (1) at 30 μM and the % of control (basal activity) of AMP (natural substrate) at 200 μM (listed as 5) | Structure (SMILES)
A (0%<A<50%) |  |  | COc1ccccc1-c1c(Cl)sc2c1C(=O)C(C)(c1ccccc1)C(=O)N2 (stereo not shown) [No 107, 2-chloro-3-(2-methoxyphenyl)-5-methyl-5-phenyl-7H-thieno[2,3-b]pyridine-4,6-dione]
C (C≧75%) |  |  | Cc1c(F)ccc(-c2csc3c2C(=O)C(F)(c2ccc(F)cc2)C(=O)N3)c1O (stereo not shown) [No 108, 5-fluoro-3-(4-fluoro-2-hydroxy-3-methyl-phenyl)-5-(4-fluorophenyl)-7H-thieno[2,3-b]pyridine-4,6-dione]
C (C≧75%) |  |  | Cc1ccc(C2(F)C(=O)Nc3scc(-c4ccc(F)cc4O)c3C2=O)cc1 (stereo not shown) [No 109, 5-fluoro-3-(4-fluoro-2-hydroxy-phenyl)-5-(p-tolyl)-7H-thieno[2,3-b]pyridine-4,6-dione]
C (C≧75%) | A (0%<A<50%) |  | COc1cc(C)ccc1-c1csc2c1C(=O)C(F)(c1cccc(C#N)c1)C(=O)N2 (stereo not shown) [No 110, 3-[5-fluoro-3-(2-methoxy-4-methyl-phenyl)-4,6-dioxo-7H-thieno[2,3-b]pyridin-5-yl]benzonitrile]
C (C≧75%) |  | A (0%<A<50%) | COc1cc(C)ccc1-c1c(F)sc2c1C(=O)C(F)(c1cccc(C#N)c1)C(=O)N2 (stereo not shown) [No 111, 3-[2,5-difluoro-3-(2-methoxy-4-methyl-phenyl)-4,6-dioxo-7H-thieno[2,3-b]pyridin-5-yl]benzonitrile]
A (0%<A<50%) |  |  | COc1cccc(O)c1-c1csc2c1C(=O)C(F)(c1ccccc1)C(=O)N2 (stereo not shown) [No 112, 5-fluoro-3-(2-hydroxy-6-methoxy-phenyl)-5-phenyl-7H-thieno[2,3-b]pyridine-4,6-dione]
B (50%≦B<75%) |  |  | COc1cc(-c2csc3c2C(=O)C(F)(c2ccccc2)C(=O)N3)ccc1C (stereo not shown) [No 113, 5-fluoro-3-(3-methoxy-4-methyl-phenyl)-5-phenyl-7H-thieno[2,3-b]pyridine-4,6-dione]
B (50%≦B<75%) |  |  | COc1cc(-c2c(F)sc3c2C(=O)C(F)(c2ccccc2)C(=O)N3)ccc1C (stereo not shown) [No 114, 2,5-difluoro-3-(3-methoxy-4-methyl-phenyl)-5-phenyl-7H-thieno[2,3-b]pyridine-4,6-dione]
C (C≧75%) |  |  | Cc1ccc(-c2csc3c2C(=O)C(F)(c2ccccc2)C(=O)N3)cc1O (stereo not shown) [No 115, 5-fluoro-3-(3-hydroxy-4-methyl-phenyl)-5-phenyl-7H-thieno[2,3-b]pyridine-4,6-dione]
C (C≧75%) |  |  | Cc1ccc(-c2c(F)sc3c2C(=O)C(F)(c2ccccc2)C(=O)N3)cc1O (stereo not shown) [No 116, 2,5-difluoro-3-(3-hydroxy-4-methyl-phenyl)-5-phenyl-7H-thieno[2,3-b]pyridine-4,6-dione]
A (0%<A<50%) |  |  | Cc1ccc(C2(C)C(=O)Nc3sc(Cl)c(-c4cccc(C)c4)c3C2=O)cc1 (stereo not shown) [No 117, 2-chloro-5-methyl-3-(m-tolyl)-5-(p-tolyl)-7H-thieno[2,3-b]pyridine-4,6-dione]
B (50%≦B<75%) |  |  | COc1cc(C)ccc1-c1csc2c1C(=O)C(F)(c1ccccc1)C(=O)N2 (stereo not shown) [No 118, 5-fluoro-3-(2-methoxy-4-methyl-phenyl)-5-phenyl-7H-thieno[2,3-b]pyridine-4,6-dione]
